{
  "source": "patent US20170027172A1",
  "about": "“USE OF SUBSTITUTE OXO TETRAHYDROQUINOLINE SULFONAMIDES OR SALTS THEREOF FOR RAISING STRESS TOLERANCE OF PLANTS” (BAYER CROPSCIENCE AKTIENGESELLSCHAFT, priority 2014, published 2017)",
  "molecular_target": "T1, phosphatase ABI1 via the co-regulator RCAR11/PYR1 (Arabidopsis thaliana, UniProt O49686+P49597)",
  "T1 sequence (O49686 1-191)": "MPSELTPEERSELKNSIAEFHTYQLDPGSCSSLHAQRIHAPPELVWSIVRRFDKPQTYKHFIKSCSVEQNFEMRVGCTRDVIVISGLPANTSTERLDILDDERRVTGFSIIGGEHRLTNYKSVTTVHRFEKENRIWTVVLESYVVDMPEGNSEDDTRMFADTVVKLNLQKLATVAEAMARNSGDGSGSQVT",
  "T1 sequence (P49597 1-434)": "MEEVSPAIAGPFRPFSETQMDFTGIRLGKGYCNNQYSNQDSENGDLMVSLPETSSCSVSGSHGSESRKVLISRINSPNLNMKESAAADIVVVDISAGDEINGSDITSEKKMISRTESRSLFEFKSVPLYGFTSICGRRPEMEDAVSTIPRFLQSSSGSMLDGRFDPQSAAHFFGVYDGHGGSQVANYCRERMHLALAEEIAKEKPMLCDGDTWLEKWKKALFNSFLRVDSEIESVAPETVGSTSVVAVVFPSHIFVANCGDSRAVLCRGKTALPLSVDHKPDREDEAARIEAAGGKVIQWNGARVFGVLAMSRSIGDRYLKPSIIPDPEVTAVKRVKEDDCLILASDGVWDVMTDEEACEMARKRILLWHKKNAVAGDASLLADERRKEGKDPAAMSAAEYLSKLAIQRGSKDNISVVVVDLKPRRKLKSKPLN",
  "assay": "In vitro inhibition of the phosphatase ABI1 via the co-regulator RCAR11/PYR1, MUP dephosphorylation",
  "assay_type": "biochemical",
  "design": "dose or concentration left out as unconfirmed",
  "settings": "in a solution of DMSO and water; fluorescence at 460 nm",
  "procedure,_shortened": "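Arabidopsis ABI1 (0.15 μg/well) with RCAR11/PYR1 (0.30 μg/well) in Tris-HCl pH 8, NaCl, MnCl2, DTT, Tween20; MUP substrate, 20 min at 35 °C, fluorescence ex 340/em 460 nm. Compounds tested at 5 mM in DMSO/water, optionally pre-treated with porcine liver esterase; inhibition banded ≥90/70/50/30%.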",
  "data": [
    {"molecule": "COC(=O)CCN1C(=O)CCc2cc(NS(=O)(=O)Cc3ccc(F)cc3)ccc21", "note": "[A51-158]", "values": [
      {"measurement": "ABI1 inhibition", "result": "+++ (90%>inhibition≧70%)"}
    ]}
  ]
}
